Reference: US12410175B2, “Compounds” (INTRA-CELLULAR THERAPIES, INC., priority 2019, dated 2025)

Experiments:
[1] = Circulating metabolites in human plasma after oral administration of Compound 1; type: in vivo; details: after oral administration of Compound 1 (parent)
bovine PDE6 = molecular target: T1, bovine PDE6 (Bos taurus, UniProt P11541+P23439); experiment: PDE selectivity assay, bovine PDE6; type: biochemical; details: PDE Target bovine PDE6
T1 sequence (P11541 2-856 limits assumed): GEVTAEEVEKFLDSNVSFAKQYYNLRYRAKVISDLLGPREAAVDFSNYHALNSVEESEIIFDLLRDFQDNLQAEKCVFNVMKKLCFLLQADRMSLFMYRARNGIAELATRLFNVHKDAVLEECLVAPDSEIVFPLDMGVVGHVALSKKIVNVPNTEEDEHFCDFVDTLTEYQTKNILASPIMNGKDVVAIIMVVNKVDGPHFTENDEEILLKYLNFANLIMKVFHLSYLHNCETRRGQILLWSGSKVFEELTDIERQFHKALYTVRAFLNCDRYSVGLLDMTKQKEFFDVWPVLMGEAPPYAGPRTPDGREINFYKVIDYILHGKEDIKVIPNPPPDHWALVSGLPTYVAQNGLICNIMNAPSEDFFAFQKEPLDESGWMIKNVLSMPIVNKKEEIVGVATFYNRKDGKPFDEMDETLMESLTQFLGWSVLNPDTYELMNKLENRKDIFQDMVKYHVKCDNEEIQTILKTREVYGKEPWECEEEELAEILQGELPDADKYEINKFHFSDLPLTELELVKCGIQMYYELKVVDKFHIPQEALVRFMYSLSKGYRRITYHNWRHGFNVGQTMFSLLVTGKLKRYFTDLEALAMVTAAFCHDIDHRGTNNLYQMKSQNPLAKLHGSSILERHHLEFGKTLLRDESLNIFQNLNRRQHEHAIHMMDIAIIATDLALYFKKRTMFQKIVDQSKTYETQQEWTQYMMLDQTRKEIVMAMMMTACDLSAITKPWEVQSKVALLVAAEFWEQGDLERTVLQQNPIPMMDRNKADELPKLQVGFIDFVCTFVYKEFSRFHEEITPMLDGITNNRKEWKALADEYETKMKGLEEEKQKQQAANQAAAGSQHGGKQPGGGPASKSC
T1 sequence (P23439 2-850 limits assumed): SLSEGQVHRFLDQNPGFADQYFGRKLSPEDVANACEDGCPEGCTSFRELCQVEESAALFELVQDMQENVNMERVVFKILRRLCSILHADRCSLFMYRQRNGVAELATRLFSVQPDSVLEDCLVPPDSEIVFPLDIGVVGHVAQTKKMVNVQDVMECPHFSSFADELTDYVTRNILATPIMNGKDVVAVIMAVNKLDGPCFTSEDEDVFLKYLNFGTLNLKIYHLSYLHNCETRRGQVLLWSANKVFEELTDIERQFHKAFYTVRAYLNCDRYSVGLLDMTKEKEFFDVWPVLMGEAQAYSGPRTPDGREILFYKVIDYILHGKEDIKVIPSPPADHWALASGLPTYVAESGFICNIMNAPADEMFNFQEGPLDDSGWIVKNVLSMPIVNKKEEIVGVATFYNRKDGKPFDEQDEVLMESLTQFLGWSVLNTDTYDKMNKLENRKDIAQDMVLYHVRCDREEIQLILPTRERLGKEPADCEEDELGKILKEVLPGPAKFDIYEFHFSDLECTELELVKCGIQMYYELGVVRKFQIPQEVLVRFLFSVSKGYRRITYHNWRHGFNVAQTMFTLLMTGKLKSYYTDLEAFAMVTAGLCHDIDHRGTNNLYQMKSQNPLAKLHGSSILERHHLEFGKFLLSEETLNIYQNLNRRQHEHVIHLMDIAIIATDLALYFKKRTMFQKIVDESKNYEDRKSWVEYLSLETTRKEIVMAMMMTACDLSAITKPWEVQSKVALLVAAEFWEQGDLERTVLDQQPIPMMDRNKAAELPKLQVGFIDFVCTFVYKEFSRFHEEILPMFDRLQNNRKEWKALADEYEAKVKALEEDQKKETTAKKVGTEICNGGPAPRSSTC

hPDE9A = hPDE9A (Homo sapiens, UniProt O76083); experiment: PDE selectivity assay, hPDE9A; type: biochemical; details: PDE Target hPDE9A
hPDE2A = hPDE2A (Homo sapiens, UniProt O00408); experiment: PDE selectivity assay, hPDE2A; type: biochemical; details: PDE Target hPDE2A
hPDE8A = hPDE8A (Homo sapiens, UniProt O60658); experiment: PDE selectivity assay, hPDE8A; type: biochemical; details: PDE Target hPDE8A
r-bovine PDE5 = r-bovine PDE5 (Bos taurus, UniProt Q28156); experiment: PDE selectivity assay, r-bovine PDE5; type: biochemical; details: PDE Target r-bovine PDE5
hPDE11 = hPDE11 (Homo sapiens, UniProt Q9HCR9); experiment: PDE selectivity assay, hPDE11; type: biochemical; details: PDE Target hPDE11
hPDE7B = hPDE7B (Homo sapiens, UniProt Q9NP56); experiment: PDE selectivity assay, hPDE7B; type: biochemical; details: PDE Target hPDE7B
hPDE4A1A = hPDE4A1A (Homo sapiens, UniProt P27815); experiment: PDE selectivity assay, hPDE4A1A; type: biochemical; details: PDE Target hPDE4A1A
PDE1C = PDE1C (Homo sapiens, UniProt Q14123); experiment: IMAP phosphodiesterase assay, PDE1C; type: biochemical; details: PDE Target PDE1C
hPDE10A = hPDE10A (Homo sapiens, UniProt Q9Y233); experiment: PDE selectivity assay, hPDE10A; type: biochemical; details: PDE Target hPDE10A
PDE1A = molecular target: T2, PDE1A (Homo sapiens, UniProt P54750); experiment: IMAP phosphodiesterase assay, PDE1A; type: biochemical; details: PDE Target PDE1A
T2 construct: recombinant full length human PDEl A and PDE1B; made in house; host or cells: HEK or SF9 cells

hPDE3B = hPDE3B (Homo sapiens, UniProt Q13370); experiment: PDE selectivity assay, hPDE3B; type: biochemical; details: PDE Target hPDE3B
PDE1B = molecular target: T3, PDE1B (Homo sapiens, UniProt Q01064); experiment: IMAP phosphodiesterase assay, PDE1B; type: biochemical; details: PDE Target PDE1B
T3 construct: recombinant full length human PDEl A and PDE1B; made in house; host or cells: HEK or SF9 cells
Excerpt: Measurement of PDEIB Inhibition In Vitro Using IMAP Phosphodiesterase Assay Kit
Phosphodiesterase I B (PDEIB) is a calcium/calmodulin dependent phosphodiesterase enzyme that converts cyclic guanosine monophosphate (cGMP) to 5′-guanosine monophosphate (5′-GMP). PDEIB can also convert a modified cGMP substrate, such as the fluorescent molecule cGMP-fluorescein, to the corresponding GMP-fluorescein. The generation of GMP-fluorescein from cGMP-fluorescein can be quantitated, using, for example, the IMAP (Molecular Devices, Sunnyvale, CA) immobilized-metal affinity particle reagent.
Briefly, the IMAP reagent binds with high affinity to the free 5′-phosphate that is found in GMP-fluorescein and not in cGMP-fluorescein. The resulting GMP-fluorescein-IMAP complex is large relative to cGMP-fluorescein. Small fluorophores that are bound up in a large, slowly tumbling, complex can be distinguished from unbound fluorophores, because the photons emitted as they fluoresce retain the same polarity as the photons used to excite the fluorescence.
In the phosphodiesterase assay, cGMP-fluorescein, which cannot be bound to IMAP, and therefore retains little fluorescence polarization, is converted to GMP-fluorescein, which, when bound to IMAP, yields a large increase in fluorescence polarization (Amp). Inhibition of phosphodiesterase, therefore, is detected as a decrease in Amp.
Materials: All chemicals are available from Sigma-Aldrich (St. Louis, MO) except for IMAP reagents (reaction buffer, binding buffer, FL-GMP and IMAP beads), which are available from Molecular Devices (Sunnyvale, CA). […]
The FL-GMP conversion reaction is initiated by combining 4 parts enzyme and inhibitor mix with 1 part substrate solution (0.225 μM) in a 384-well microtiter plate. […] The plate is incubated at room temperature for 1 hour to allow IMAP binding to proceed to completion, and then placed in an Envision multimode microplate reader (PerkinElmer, Shelton, CT) to measure the fluorescence polarization (Amp).
A decrease in GMP concentration, measured as decreased Amp, is indicative of inhibition of PDE activity.

Sequence of hPDE7B (Q9NP56 whole entry): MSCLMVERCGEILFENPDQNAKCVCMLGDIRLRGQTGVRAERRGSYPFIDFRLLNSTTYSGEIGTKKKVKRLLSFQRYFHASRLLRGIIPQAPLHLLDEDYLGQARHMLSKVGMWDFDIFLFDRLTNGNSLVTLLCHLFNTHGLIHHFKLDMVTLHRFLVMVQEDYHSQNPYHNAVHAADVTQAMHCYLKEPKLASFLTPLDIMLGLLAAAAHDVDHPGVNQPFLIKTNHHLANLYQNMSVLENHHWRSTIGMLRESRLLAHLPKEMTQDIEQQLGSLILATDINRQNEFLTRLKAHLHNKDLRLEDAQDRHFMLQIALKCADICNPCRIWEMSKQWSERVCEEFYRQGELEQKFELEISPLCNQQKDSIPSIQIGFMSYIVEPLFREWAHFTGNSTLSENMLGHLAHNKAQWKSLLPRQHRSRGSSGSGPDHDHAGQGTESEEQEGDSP
Sequence of hPDE8A (O60658 whole entry): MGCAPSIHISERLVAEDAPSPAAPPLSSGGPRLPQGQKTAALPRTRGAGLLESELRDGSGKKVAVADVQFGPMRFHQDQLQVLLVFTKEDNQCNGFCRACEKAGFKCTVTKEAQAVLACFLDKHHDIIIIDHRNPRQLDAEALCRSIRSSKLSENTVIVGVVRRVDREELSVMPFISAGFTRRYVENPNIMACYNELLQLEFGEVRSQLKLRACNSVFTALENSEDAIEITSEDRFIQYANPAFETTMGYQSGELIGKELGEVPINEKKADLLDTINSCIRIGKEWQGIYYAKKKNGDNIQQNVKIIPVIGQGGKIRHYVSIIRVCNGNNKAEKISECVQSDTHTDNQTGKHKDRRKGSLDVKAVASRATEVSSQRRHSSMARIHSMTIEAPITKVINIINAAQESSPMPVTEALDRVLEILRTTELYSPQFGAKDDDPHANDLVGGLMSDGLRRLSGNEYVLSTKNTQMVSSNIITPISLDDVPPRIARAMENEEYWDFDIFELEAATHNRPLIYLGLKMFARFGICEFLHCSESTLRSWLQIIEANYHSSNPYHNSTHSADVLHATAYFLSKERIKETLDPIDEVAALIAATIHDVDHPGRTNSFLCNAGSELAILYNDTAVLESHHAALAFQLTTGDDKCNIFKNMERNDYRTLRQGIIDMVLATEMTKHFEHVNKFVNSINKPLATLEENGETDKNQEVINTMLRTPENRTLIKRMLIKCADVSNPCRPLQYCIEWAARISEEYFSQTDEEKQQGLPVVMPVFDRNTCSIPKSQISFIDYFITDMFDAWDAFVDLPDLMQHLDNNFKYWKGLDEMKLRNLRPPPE
Sequence of hPDE9A (O76083 whole entry): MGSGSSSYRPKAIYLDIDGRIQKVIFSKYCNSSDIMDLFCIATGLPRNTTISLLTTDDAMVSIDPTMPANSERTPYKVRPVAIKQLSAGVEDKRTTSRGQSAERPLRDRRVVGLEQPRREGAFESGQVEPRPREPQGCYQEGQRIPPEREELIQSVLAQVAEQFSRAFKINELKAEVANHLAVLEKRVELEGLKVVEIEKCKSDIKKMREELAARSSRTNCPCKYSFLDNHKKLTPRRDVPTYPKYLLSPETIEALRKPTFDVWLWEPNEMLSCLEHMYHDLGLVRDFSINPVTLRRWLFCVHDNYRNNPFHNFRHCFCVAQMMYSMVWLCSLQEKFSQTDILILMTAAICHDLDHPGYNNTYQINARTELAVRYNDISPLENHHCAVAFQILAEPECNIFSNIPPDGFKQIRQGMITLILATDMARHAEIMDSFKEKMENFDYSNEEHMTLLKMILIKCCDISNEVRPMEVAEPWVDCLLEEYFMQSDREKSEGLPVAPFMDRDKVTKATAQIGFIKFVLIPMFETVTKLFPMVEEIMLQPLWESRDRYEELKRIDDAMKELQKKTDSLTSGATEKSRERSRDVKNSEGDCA
Sequence of hPDE11 (Q9HCR9 whole entry): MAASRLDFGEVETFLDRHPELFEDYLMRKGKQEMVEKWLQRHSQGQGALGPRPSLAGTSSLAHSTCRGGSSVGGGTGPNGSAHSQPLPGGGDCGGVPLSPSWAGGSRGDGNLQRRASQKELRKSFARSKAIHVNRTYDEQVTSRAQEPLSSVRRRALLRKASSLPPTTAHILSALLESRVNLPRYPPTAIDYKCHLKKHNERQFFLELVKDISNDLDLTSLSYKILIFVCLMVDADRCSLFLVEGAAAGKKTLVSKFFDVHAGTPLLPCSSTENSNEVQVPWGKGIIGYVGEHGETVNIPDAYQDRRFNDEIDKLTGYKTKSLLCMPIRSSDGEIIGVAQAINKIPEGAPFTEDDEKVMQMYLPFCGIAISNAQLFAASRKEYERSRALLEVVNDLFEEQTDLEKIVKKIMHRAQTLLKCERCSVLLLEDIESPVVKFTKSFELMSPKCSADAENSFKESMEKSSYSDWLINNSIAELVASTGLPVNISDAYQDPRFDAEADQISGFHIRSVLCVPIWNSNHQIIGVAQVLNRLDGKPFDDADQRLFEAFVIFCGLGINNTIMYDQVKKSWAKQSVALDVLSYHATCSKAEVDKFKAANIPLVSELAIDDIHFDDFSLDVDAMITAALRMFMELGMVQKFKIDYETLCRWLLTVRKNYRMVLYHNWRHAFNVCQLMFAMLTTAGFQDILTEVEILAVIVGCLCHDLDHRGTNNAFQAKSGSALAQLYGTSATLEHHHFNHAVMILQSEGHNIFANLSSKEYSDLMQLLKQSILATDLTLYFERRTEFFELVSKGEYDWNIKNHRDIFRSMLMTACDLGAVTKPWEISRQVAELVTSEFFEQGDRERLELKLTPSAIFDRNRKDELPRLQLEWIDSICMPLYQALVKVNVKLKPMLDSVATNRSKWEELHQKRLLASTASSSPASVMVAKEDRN
Sequence of hPDE2A (O00408 whole entry): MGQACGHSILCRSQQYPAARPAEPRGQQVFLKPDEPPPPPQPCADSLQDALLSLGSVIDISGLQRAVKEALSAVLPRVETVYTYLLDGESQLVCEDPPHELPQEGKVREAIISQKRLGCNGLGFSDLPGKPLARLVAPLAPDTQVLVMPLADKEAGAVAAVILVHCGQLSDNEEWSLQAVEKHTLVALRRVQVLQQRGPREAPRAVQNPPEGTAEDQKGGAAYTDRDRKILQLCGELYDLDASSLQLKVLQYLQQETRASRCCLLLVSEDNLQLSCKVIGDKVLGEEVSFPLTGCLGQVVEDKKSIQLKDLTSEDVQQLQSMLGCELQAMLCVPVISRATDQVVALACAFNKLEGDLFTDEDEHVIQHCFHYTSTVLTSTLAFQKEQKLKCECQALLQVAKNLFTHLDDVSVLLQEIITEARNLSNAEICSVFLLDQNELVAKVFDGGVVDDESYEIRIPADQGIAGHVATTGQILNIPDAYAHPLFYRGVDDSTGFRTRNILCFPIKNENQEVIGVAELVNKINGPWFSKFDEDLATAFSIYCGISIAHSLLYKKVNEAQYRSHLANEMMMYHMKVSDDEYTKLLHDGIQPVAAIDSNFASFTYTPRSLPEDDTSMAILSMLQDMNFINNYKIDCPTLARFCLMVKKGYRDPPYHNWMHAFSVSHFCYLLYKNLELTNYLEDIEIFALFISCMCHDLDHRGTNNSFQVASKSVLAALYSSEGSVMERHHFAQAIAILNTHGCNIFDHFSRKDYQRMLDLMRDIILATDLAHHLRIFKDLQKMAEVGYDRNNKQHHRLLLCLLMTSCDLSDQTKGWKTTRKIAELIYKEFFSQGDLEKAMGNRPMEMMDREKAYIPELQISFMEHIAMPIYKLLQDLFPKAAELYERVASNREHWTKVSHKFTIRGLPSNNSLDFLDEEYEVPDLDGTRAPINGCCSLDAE
Sequence of hPDE4A1A (P27815 1-647 isoform P27815-4): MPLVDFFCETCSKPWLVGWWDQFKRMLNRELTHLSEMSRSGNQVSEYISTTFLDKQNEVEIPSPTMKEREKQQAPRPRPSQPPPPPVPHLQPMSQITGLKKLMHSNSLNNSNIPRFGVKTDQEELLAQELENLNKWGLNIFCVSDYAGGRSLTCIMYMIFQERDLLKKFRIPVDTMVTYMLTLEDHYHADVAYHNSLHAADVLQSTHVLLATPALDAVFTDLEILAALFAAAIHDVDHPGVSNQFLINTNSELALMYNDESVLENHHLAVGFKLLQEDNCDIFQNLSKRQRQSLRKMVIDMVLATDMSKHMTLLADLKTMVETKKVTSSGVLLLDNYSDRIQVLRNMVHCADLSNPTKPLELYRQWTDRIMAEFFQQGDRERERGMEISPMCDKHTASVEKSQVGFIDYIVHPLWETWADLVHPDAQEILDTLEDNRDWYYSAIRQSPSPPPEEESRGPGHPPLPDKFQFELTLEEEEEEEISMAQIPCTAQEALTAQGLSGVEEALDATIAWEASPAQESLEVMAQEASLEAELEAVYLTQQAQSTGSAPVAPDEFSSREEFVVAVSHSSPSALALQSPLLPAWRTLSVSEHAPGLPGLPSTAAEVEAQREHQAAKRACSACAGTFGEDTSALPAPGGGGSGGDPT

share of the total circulating drug related materials in human plasma [1] [%] | IC50 (bovine PDE6) [nM] | IC50 (hPDE9A) [nM] | IC50 (hPDE2A) [nM] | IC50 (hPDE8A) [nM] | IC50 (r-bovine PDE5) [nM] | IC50 (hPDE11) [nM] | IC50 (hPDE7B) [nM] | IC50 (hPDE4A1A) [nM] | IC50 (PDE1C) [nM] | IC50 (hPDE10A) [nM] | IC50 (PDE1A) [nM] | IC50 (hPDE3B) [nM] | IC50 (PDE1B) [nM] | SMILES
84 |  |  |  |  |  |  |  |  |  |  |  |  |  | CN1C(=O)c2c(nn(Cc3ccc(-c4cccc(F)n4)cc3)c2Nc2ccccc2)N2C1=N[C@]1(O)CCC[C@H]21 [M-I]
 | 294 | > 100000 | 73400 | 3420 | 156 | 396 | 1240 | 840 | 5.4 | 67400 | 6.3 | 20900 | 1.4 | CN1C(=O)c2c(nn(Cc3ccc(-c4cccc(F)n4)cc3)c2Nc2ccc(O)cc2)N2C1=N[C@]1(O)CCC[C@H]21 [Compound 3]
 | 4340 | > 100000 | > 100000 | 4170 | 2480 | 5440 | 6610 | 3660 | 1.3 | > 100000 | 1.3 | 49700 | 29 | CN1C(=O)c2c(nn(Cc3ccc(-c4cccc(F)n4)cc3)c2Nc2ccc(O)cc2)N2C1=N[C@@H]1CCC[C@@H]12 [Compound 1]
 | 34 | > 10000 | ~10000 | 418 | 3.1 | 454 | 118 | 22 | 0.042 | > 10000 | 0.042 | ~10000 | 0.015 | CN1C(=O)c2c(nn(Cc3ccc(-c4cccc(F)n4)cc3)c2Nc2ccccc2)N2C1=N[C@]1(O)CCC[C@H]21 [Compound 2]
